Structures are written as SMILES.

Experimental findings from US12084472B2 (Ardelyx, Inc., priority 2015, dated 2024) are described below.

This experiment concerns the target T1, human TGR5 (Homo sapiens, UniProt Q8TDU6).
T1 construct: expressed in transfected cells; host or cells: HEK293
T1 sequence (Q8TDU6 1-330): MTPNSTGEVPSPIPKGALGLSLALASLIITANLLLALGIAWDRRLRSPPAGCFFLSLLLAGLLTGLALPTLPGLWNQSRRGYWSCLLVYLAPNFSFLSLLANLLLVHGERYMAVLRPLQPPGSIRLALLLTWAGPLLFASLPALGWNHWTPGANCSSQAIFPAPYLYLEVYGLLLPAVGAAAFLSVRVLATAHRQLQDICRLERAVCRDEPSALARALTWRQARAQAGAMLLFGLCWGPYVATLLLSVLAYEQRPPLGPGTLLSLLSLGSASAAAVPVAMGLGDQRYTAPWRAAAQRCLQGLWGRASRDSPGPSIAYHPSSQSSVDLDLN
The experiment can be described thus: Cell-based TGR5 assay (cAMP generation, HTRF). To be noted: HEK293 cells stably transfected with human TGR5; cAMP by HTRF; 30 minutes at 37° C.; read-out: pEC50 Human TGR5 (converted). The method, boiled down:
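First, compounds in 3-fold serial dilution were placed in HBSS with 10 mM HEPES pH 7.4 and 0.5 mM IBMX. Next, human TGR5-expressing HEK293 cells were added and incubated 30 min at 37° C. Finally, cAMP was detected by HTRF and pEC50 derived by logistic fitting.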
Take `O=C(NCCOCCSc1ccc(Cl)c(CNC2(c3cnccc3-c3ccccc3OC3CC3)CC2)c1)NC[C@H](O)[C@@H](O)[C@H](O)[C@H](O)CO` [Compound I-626, 1-{2-[2-({4-chloro-3-[({1-[4-(2-cyclopropoxyphenyl)pyridin-3-yl]cyclopropyl}amino)methyl]phenyl}sulfanyl)ethoxy]ethyl}-3-[(2S,3R,4R,5R)-2,3,4,5,6-pentahydroxyhexyl]urea]: the EC50 was less than 0.1 µM. The value for `O=C(CCCCc1cc(Cl)c(COC2(c3cnccc3-c3ccccc3OC3CC3)CC2)cc1Cl)N(Cc1ccccc1)C[C@H](O)[C@@H](O)[C@H](O)[C@H](O)CO` [Compound I-126, N-benzyl-5-(2,5-dichloro-4((1-(4-(2-cyclopropoxyphenyl)pyridin-3-yl)cyclopropoxy)methyl)phenyl)-N-((2S,3R,4R,5R)-2,3,4,5,6-pentahydroxyhexyl)pentanamide] was 0.126 to 1 µM; that for `CC(CCCc1cc(Cl)c(COC2(c3cnccc3-c3ccccc3OC3CC3)CC2)cc1Cl)C(=O)NC[C@H](O)[C@@H](O)[C@H](O)[C@H](O)CO` (stereo partly drawn) [Compound I-139, 5-[2,5-dichloro-4-({1-[4-(2-cyclopropoxyphenyl)pyridin-3-yl]cyclopropoxy}methyl)phenyl]-2-methyl-N-[(2S,3R,4R,5R)-2,3,4,5,6-pentahydroxyhexyl]pentanamide] was less than 0.1 µM; that for `CN(CCOCCN)S(=O)(=O)c1ccc(Cl)c(COC2(c3cnccc3-c3ccccc3OC3CC3)CC2)c1` [Compound I-400, N-[2-(2-aminoethoxy)ethyl]-4-chloro-3-({1-[4-(2-cyclopropoxyphenyl)pyridin-3-yl]cyclopropoxy}methyl)-N-methylbenzene-1-sulfonamide] was 0.126 to 1 µM. With `CN(C[C@H](O)[C@@H](O)[C@H](O)[C@H](O)CO)C(=O)CCCCSc1ccc(Cl)c(COC2(c3cnccc3-c3ccccc3OC3CC3)CC2)c1` [Compound I-682, 5-{[4-chloro-3-({1-[4-(2-cyclopropoxyphenyl)pyridin-3-yl]cyclopropoxy}methyl)phenyl]sulfanyl}-N-methyl-N-[(2S,3R,4R,5R)-2,3,4,5,6-pentahydroxyhexyl]pentanamide] the figure was less than 0.1 µM; with `Cc1ccc(CCCCCNC(=O)NC[C@H](O)[C@@H](O)[C@H](O)[C@H](O)CO)nc1CNC1(c2cnccc2-c2ccccc2OC2CC2)CC1` [Compound I-707], 1.26 to 10 µM; with `CCc1ccc(SCCCC(=O)NC[C@H](O)[C@@H](O)[C@H](O)[C@H](O)CO)cc1COC1(c2cnccc2-c2ccccc2OC2CC2)CC1` [Compound I-497, 4-[[3-([l-[4-(2-Cyclopropoxyphenyl)pyridin-3-yl]cyclopropoxy]methyl)-4-ethylphenyl]sulfanyl]-N-[(2S,3R,4R,5R)-2,3,4,5,6-pentahydroxyhexyl]butanamide], 0.126 to 1 µM. With `COCCCN(CCCC(C)c1ccc(C)c(CNC2(c3cnccc3-c3ccccc3OC3CC3)CC2)c1)C(=O)[C@@H](O)[C@@H](O)[C@H](O)[C@@H](O)CO` (stereo partly drawn) [Compound I-303, (2S,3S,4R,5S)-N-(4-{3-[({1-[4-(2-cyclopropoxyphenyl)pyridin-3-yl]cyclopropyl}amino)methyl]-4-methylphenyl}pentyl)-2,3,4,5,6-pentahydroxy-N-(3-methoxypropyl)hexanamide] the figure was less than 0.1 µM. With `CNC(=O)N(CCCCc1cc(Cl)c(COC2(c3cnccc3-c3ccccc3OC3CC3)CC2)cc1Cl)C[C@H](O)[C@@H](O)[C@H](O)[C@H](O)CO` [Compound I-79], the EC50 was less than 0.1 µM. As to `Cc1ccc([C@@H](C)CCCC(=O)N(C)C[C@H](O)[C@@H](O)[C@H](O)[C@H](O)CO)cc1CNC1(c2cnccc2-c2ccccc2OC2CC2)CC1` (single isomer, unassigned) [Compound I-350], the EC50 was less than 0.1 µM. The value for `CC(CCCC(=O)N(CCC(=O)N(C)C)C[C@H](O)[C@@H](O)[C@H](O)[C@H](O)CO)c1ccc(Cl)c(CNC2(c3cnccc3-c3ccccc3OC3CC3)CC2)c1` (stereo partly drawn) [Compound I-345, 5-{4-chloro-3-[({1-[4-(2-cyclopropoxyphenyl)pyridin-3-yl]cyclopropyl}amino)methyl]phenyl}-N-[2-(dimethylcarbamoyl)ethyl]-N-[(2S,3R,4R,5R)-2,3,4,5,6-pentahydroxyhexyl]hexanamide] was 0.126 to 1 µM. The value for `O=C(NCCCCSc1ccc(Cl)c(CNC2(c3cnccc3-c3ccccc3OC3CC3)CC2)c1)NC[C@H](O)[C@@H](O)[C@H](O)[C@H](O)CO` [Compound I-623, 1-[4-({4-chloro-3-[({1-[4-(2-cyclopropoxyphenyl)pyridin-3-yl]cyclopropyl}amino)methyl]phenyl}sulfanyl)butyl]-3-[(2S,3R,4R,5R)-2,3,4,5,6-pentahydroxyhexyl]urea] was less than 0.1 µM; that for `COc1c(F)cc(CNC2(c3cnccc3-c3ccccc3OC3CC3)CC2)c(C)c1Cl` [Compound I-36, N-[(3-chloro-5-fluoro-4-methoxy-2-methylphenyl)methyl]-1-[4-(2-cyclopropoxyphenyl)pyridin-3-yl]cyclopropan-1-amine] was 0.126 to 1 µM; that for `O=C1NCCN1CCN(CCCSc1ccc(Cl)c(COC2(c3cnccc3-c3ccccc3OC3CC3)CC2)c1)C(=O)[C@@H](O)[C@@H](O)[C@H](O)[C@@H](O)CO` [Compound I-543, (2S,3S,4R,5S)-N-(3-{[4-chloro-3-({1-[4-(2-cyclopropoxyphenyl)pyridin-3-yl]cyclopropoxy}methyl)phenyl]sulfanyl}propyl)-2,3,4,5,6-pentahydroxy-N-[2-(2-oxoimidazolidin-1-yl)ethyl]hexanamide] was 0.126 to 1 µM. Regarding `CC(=O)NCCCCN(CCCCSc1ccc(Cl)c(CNC2(c3cnccc3-c3ccccc3OC3CC3)CC2)c1)C(=O)[C@@H](O)[C@@H](O)[C@H](O)[C@@H](O)CO` [Compound I-567, (2S,3S,4R,5S)-N-[4-({4-chloro-3-[({1-[4-(2-cyclopropoxyphenyl)pyridin-3-yl]cyclopropyl}amino)methyl]phenyl}sulfanyl)butyl]-N-(4-acetamidobutyl)-2,3,4,5,6-pentahydroxyhexanamide], the EC50 is 0.126 to 1 µM.
